{"source": "patent US12441703B2", "about": "“Carboxamides as modulators of sodium channels” (VERTEX PHARMACEUTICALS INCORPORATED, priority 2019, dated 2025)"}
{"target": "human NaV 1.8 (Homo sapiens, UniProt Q9Y5Y9)", "sequence (Q9Y5Y9 whole entry, looked up, the tested form may be a part)": "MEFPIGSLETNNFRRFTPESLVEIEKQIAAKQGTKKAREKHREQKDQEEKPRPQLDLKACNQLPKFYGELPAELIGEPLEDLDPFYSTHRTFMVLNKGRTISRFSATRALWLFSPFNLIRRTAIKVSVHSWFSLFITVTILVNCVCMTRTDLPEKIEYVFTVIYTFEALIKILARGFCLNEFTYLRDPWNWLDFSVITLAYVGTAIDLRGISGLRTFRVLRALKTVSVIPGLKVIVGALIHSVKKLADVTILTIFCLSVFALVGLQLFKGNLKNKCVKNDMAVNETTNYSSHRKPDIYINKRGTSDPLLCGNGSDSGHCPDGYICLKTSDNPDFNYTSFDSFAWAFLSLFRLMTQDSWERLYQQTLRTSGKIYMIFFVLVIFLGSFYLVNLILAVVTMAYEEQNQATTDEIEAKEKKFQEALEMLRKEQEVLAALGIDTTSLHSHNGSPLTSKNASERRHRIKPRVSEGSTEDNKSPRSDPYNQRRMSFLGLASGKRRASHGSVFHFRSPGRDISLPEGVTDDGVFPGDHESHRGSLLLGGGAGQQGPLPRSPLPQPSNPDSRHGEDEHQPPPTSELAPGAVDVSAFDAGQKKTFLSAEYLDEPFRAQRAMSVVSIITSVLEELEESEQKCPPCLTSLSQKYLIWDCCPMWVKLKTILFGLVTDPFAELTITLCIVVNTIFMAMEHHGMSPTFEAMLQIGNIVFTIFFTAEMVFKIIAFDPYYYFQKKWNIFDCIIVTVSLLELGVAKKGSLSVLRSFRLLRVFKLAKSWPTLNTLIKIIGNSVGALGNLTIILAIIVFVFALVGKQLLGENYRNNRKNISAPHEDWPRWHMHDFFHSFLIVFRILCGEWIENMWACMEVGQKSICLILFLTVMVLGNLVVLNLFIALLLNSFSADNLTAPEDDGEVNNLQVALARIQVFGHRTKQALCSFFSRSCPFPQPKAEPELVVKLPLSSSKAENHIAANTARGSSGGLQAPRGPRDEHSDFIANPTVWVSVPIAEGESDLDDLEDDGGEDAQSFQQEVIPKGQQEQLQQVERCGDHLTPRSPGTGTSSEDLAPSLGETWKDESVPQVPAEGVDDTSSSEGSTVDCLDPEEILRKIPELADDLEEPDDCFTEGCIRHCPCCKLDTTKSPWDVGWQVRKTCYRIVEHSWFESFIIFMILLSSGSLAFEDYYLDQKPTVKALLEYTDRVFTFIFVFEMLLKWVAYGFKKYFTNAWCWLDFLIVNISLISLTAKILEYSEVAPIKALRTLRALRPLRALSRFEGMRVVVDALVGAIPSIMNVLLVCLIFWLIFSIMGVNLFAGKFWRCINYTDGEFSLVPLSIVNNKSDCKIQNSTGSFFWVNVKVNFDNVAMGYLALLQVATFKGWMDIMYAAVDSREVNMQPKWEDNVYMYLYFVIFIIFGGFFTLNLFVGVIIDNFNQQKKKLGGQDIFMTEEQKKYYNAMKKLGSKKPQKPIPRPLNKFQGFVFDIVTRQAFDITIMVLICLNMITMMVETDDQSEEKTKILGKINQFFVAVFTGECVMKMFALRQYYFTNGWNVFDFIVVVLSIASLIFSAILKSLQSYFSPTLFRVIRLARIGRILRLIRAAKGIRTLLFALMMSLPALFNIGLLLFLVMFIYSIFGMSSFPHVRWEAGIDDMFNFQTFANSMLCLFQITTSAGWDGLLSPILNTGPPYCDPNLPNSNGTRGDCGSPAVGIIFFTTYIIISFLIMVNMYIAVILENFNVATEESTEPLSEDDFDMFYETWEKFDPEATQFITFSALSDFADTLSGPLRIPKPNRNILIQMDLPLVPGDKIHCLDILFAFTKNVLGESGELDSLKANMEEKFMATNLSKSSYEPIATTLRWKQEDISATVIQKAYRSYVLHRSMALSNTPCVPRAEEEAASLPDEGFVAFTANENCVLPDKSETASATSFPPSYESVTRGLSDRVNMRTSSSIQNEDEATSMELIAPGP", "test": "E-VIPR assay for detecting and measuring NaV inhibition properties", "assay_type": "cell-based", "conditions": "E-VIPR assay conducted in the presence of human serum; HEK cells expressing truncated human NaV 1.8", "procedure,_shortened": "(§1)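 Membrane-potential (coumarin/oxonol) readout after 10 s of 10 Hz biphasic electrical stimulation on E-VIPR. Compounds: 11-point 3-fold dilutions, […], 0.625% DMSO, 30 min at room temperature, human serum optional. Cells: HEK expressing truncated human NaV1.8 co-transduced with KIR2.1.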", "units": {"IC50": "nM"}}
{"compound": "COc1cc(OC(F)(F)F)ccc1Oc1ccc(-c2ccccc2)c(F)c1C(=O)Nc1ccnc(C(N)=O)c1", "note": "[Compound 177, 4-[[2-fluoro-6-[2-methoxy-4-(trifluoromethoxy)phenoxy]-3-phenyl-benzoyl]amino]pyridine-2-carboxamide]", "IC50": 20}
{"target": "human NaV 1.8 (Homo sapiens, UniProt Q9Y5Y9)", "test": "E-VIPR assay for detecting and measuring NaV inhibition properties", "assay_type": "cell-based", "conditions": "E-VIPR assay conducted in the presence of human serum; HEK cells expressing truncated human NaV 1.8; read-out: IC50", "procedure,_shortened": "as §1", "units": {"IC50": "nM"}}
{"compound": "Cc1c(C(F)(F)F)ccc(Oc2ccc(F)c(F)c2F)c1C(=O)Nc1ccnc(C(N)=O)c1", "note": "[Compound 140, 4-[[2-methyl-3-(trifluoromethyl)-6-(2,3,4-trifluorophenoxy)benzoyl]amino]pyridine-2-carboxamide]", "IC50": 68}
{"compound": "Cc1c(F)ccc(Oc2ccc(C(F)(F)F)c(C)c2C(=O)Nc2ccnc(C(N)=O)c2)c1C", "note": "[Compound 141, 4-[[6-(4-fluoro-2,3-dimethyl-phenoxy)-2-methyl-3-(trifluoromethyl)benzoyl]amino]pyridine-2-carboxamide]", "IC50": 220}
{"compound": "Cc1cc(Cl)cc(Cl)c1Oc1ccc(C(F)(F)F)c(C)c1C(=O)Nc1ccnc(C(N)=O)c1", "note": "[Compound 142, 4-[[6-(2,4-dichloro-6-methyl-phenoxy)-2-methyl-3-(trifluoromethyl)benzoyl]amino]pyridine-2-carboxamide]", "IC50": 1700}
{"compound": "Cc1c(C(F)(F)F)ccc(Oc2c(F)cc(F)cc2F)c1C(=O)Nc1ccnc(C(N)=O)c1", "note": "[Compound 143, 4-[[2-methyl-3-(trifluoromethyl)-6-(2,4,6-trifluorophenoxy)benzoyl]amino]pyridine-2-carboxamide]", "IC50": "> 3000"}
{"compound": "Cc1cc(Cl)cc(C)c1Oc1ccc(C(F)(F)F)c(C)c1C(=O)Nc1ccnc(C(N)=O)c1", "note": "[Compound 144, 4-[[6-(4-chloro-2,6-dimethyl-phenoxy)-2-methyl-3-(trifluoromethyl)benzoyl]amino]pyridine-2-carboxamide]", "IC50": 765}
{"compound": "COc1cc(C)cc(OC)c1Oc1ccc(C(F)(F)F)c(C)c1C(=O)Nc1ccnc(C(N)=O)c1", "note": "[Compound 145, 4-[[6-(2,6-dimethoxy-4-methyl-phenoxy)-2-methyl-3-(trifluoromethyl)benzoyl]amino]pyridine-2-carboxamide]", "IC50": "> 3000"}
{"compound": "Cc1c(C(F)(F)F)ccc(Oc2ccc(OC(F)(F)F)cc2Cl)c1C(=O)Nc1ccnc(C(N)=O)c1", "note": "[Compound 146, 4-[[6-[2-chloro-4-(trifluoromethoxy)phenoxy]-2-methyl-3-(trifluoromethyl)benzoyl]amino]pyridine-2-carboxamide]", "IC50": 17}
{"compound": "COc1c(Oc2ccc(C(F)(F)F)c(C)c2C(=O)Nc2ccnc(C(N)=O)c2)ccc(OC(F)(F)F)c1F", "note": "[Compound 147, 4-[[6-[3-fluoro-2-methoxy-4-(trifluoromethoxy)phenoxy]-2-methyl-3-(trifluoromethyl)benzoyl]amino]pyridine-2-carboxamide]", "IC50": 3}
{"compound": "Cc1c(C(F)(F)F)ccc(Oc2ccc(OC(F)(F)F)cc2C2CC2)c1C(=O)Nc1ccnc(C(N)=O)c1", "note": "[Compound 148, 4-[[6-[2-cyclopropyl-4-(trifluoromethoxy)phenoxy]-2-methyl-3-(trifluoromethyl)benzoyl]amino]pyridine-2-carboxamide]", "IC50": 9}
{"compound": "Cc1c(Oc2ccc(C(F)(F)F)c(C)c2C(=O)Nc2ccnc(C(N)=O)c2)ccc(F)c1F", "note": "[Compound 149, 4-[[6-(3,4-difluoro-2-methyl-phenoxy)-2-methyl-3-(trifluoromethyl)benzoyl]amino]pyridine-2-carboxamide]", "IC50": 19}
{"compound": "COc1cc(OC(F)(F)F)ccc1Oc1ccc(C(F)(F)F)c(F)c1C(=O)Nc1cc[n+]([O-])c(C(N)=O)c1", "note": "[Compound 150, 4-[[2-fluoro-6-[2-methoxy-4-(trifluoromethoxy)phenoxy]-3-(trifluoromethyl)benzoyl]amino]-1-oxido-pyridin-1-ium-2-carboxamide]", "IC50": 2}
{"compound": "COc1cc(OC(F)(F)F)ccc1Oc1ccc(C(F)(F)F)c(C)c1C(=O)Nc1ccnc(C(N)=O)c1", "note": "[Compound 151, 4-[[6-[2-methoxy-4-(trifluoromethoxy)phenoxy]-2-methyl-3-(trifluoromethyl)benzoyl]amino]pyridine-2-carboxamide]", "IC50": 4}
{"compound": "COc1cc(OC(F)(F)F)ccc1Oc1ccc(C(F)(F)F)c(C)c1C(=O)Nc1ccc(C(N)=O)nc1", "note": "[Compound 152]", "IC50": 12}
{"compound": "COc1cc(OC(F)(F)F)ccc1Oc1ccc(C(F)(F)F)c(C)c1C(=O)Nc1cc(C(N)=O)ncc1C", "note": "[Compound 153]", "IC50": 7}
{"compound": "COc1cc(OC(F)(F)F)ccc1Oc1cc(-c2ccoc2)ccc1C(=O)Nc1ccnc(C(N)=O)c1", "note": "[Compound 154, 4-[[4-(3-furyl)-2-[2-methoxy-4-(trifluoromethoxy)phenoxy]benzoyl]amino]pyridine-2-carboxamide]", "IC50": 988}
{"compound": "COc1cc(OC(F)(F)F)ccc1Oc1cc(-c2ccc(Cl)cc2)ccc1C(=O)Nc1ccnc(C(N)=O)c1", "note": "[Compound 155, 4-[[4-(4-chlorophenyl)-2-[2-methoxy-4-(trifluoromethoxy)phenoxy]benzoyl]amino]pyridine-2-carboxamide]", "IC50": 505}
{"compound": "COc1cc(OC(F)(F)F)ccc1Oc1cc(-c2ccc(F)cc2)ccc1C(=O)Nc1ccnc(C(N)=O)c1", "note": "[Compound 156, 4-[[4-(4-fluorophenyl)-2-[2-methoxy-4-(trifluoromethoxy)phenoxy]benzoyl]amino]pyridine-2-carboxamide]", "IC50": 730}
{"compound": "COc1cc(OC(F)(F)F)ccc1Oc1cc(-c2ccc(C(F)(F)F)cc2)ccc1C(=O)Nc1ccnc(C(N)=O)c1", "note": "[Compound 157, 4-[[2-[2-methoxy-4-(trifluoromethoxy)phenoxy]-4-[4-(trifluoromethyl)phenyl]benzoyl]amino]pyridine-2-carboxamide]", "IC50": 408}
{"compound": "COc1cc(F)ccc1Oc1cc(C(F)(F)F)ccc1C(=O)Nc1ccnc(C(N)=O)c1", "note": "[Compound 159, 4-[[2-(4-fluoro-2-methoxy-phenoxy)-4-(trifluoromethyl)benzoyl]amino]pyridine-2-carboxamide]", "IC50": "> 3000"}
{"compound": "CC(C)Oc1ccc(Oc2cc(C(F)(F)F)ccc2C(=O)Nc2ccnc(C(N)=O)c2)cc1F", "note": "[Compound 160, 4-[[2-(3-fluoro-4-isopropoxy-phenoxy)-4-(trifluoromethyl)benzoyl]amino]pyridine-2-carboxamide]", "IC50": "> 3000"}
{"compound": "NC(=O)c1cc(NC(=O)c2ccc(C(F)(F)F)cc2Oc2ccc(F)cc2Cl)ccn1", "note": "[Compound 161, 4-[[2-(2-chloro-4-fluoro-phenoxy)-4-(trifluoromethyl)benzoyl]amino]pyridine-2-carboxamide]", "IC50": "> 3000"}
{"compound": "NC(=O)c1cc(NC(=O)c2ccc(C(F)(F)F)cc2Oc2ccc(F)c(F)c2)ccn1", "note": "[Compound 163, 4-[[2-(3,4-difluorophenoxy)-4-(trifluoromethyl)benzoyl]amino]pyridine-2-carboxamide]", "IC50": "> 3000"}
{"compound": "CC(C)Oc1ccc(Oc2cc(C(F)(F)F)ccc2C(=O)Nc2ccnc(C(N)=O)c2)cc1", "note": "[Compound 164, 4-[[2-(4-isopropoxyphenoxy)-4-(trifluoromethyl)benzoyl]amino]pyridine-2-carboxamide]", "IC50": "> 3000"}
{"compound": "NC(=O)c1cc(NC(=O)c2ccc(C(F)(F)F)cc2Oc2ccc(F)c3c2OCC3)ccn1", "note": "[Compound 165, 4-[[2-[(4-fluoro-2,3-dihydrobenzofuran-7-yl)oxy]-4-(trifluoromethyl)benzoyl]amino]pyridine-2-carboxamide]", "IC50": "> 3000"}
{"compound": "Cc1cc(Oc2cc(C(F)(F)F)ccc2C(=O)Nc2ccnc(C(N)=O)c2)ccc1F", "note": "[Compound 166, 4-[[2-(4-fluoro-3-methyl-phenoxy)-4-(trifluoromethyl)benzoyl]amino]pyridine-2-carboxamide]", "IC50": "> 3000"}
{"compound": "COc1cc(Oc2cc(C(F)(F)F)ccc2C(=O)Nc2ccnc(C(N)=O)c2)ccc1F", "note": "[Compound 167, 4-[[2-(4-fluoro-3-methoxy-phenoxy)-4-(trifluoromethyl)benzoyl]amino]pyridine-2-carboxamide]", "IC50": "> 3000"}
{"compound": "COc1cc(OC(F)(F)F)ccc1Oc1cc(-c2ccc(F)cc2)cc(F)c1C(=O)Nc1ccc(C(N)=O)nc1", "note": "[Compound 170, 5-[[2-fluoro-4-(4-fluorophenyl)-6-[2-methoxy-4-(trifluoromethoxy)phenoxy]benzoyl]amino]pyridine-2-carboxamide]", "IC50": 230}
{"compound": "COc1cc(OC(F)(F)F)ccc1Oc1cc(-c2ccc(Cl)cc2)cc(F)c1C(=O)Nc1ccnc(C(N)=O)c1", "note": "[Compound 171, 4-[[4-(4-chlorophenyl)-2-fluoro-6-[2-methoxy-4-(trifluoromethoxy)phenoxy]benzoyl]amino]pyridine-2-carboxamide]", "IC50": 9}
{"compound": "COc1cc(OC(F)(F)F)ccc1Oc1cc(-c2ccc(C(C)(C)C)cc2)cc(F)c1C(=O)Nc1ccnc(C(N)=O)c1", "note": "[Compound 172]", "IC50": 50}
{"compound": "[2H]C([2H])([2H])Oc1cc(OC(F)(F)F)ccc1Oc1cc(C(F)(F)F)cnc1C(=O)Nc1ccnc(C(N)=O)c1", "note": "[Compound 173, N-(2-carbamoyl-4-pyridyl)-3-[2-(trideuteriomethoxy)-4-(trifluoromethoxy)phenoxy]-5-(trifluoromethyl)pyridine-2-carboxamide]", "IC50": 1300}
{"compound": "[2H]C([2H])([2H])Oc1cc(OC(F)(F)F)ccc1Oc1cc(C(F)(F)F)cnc1C(=O)Nc1ccc(C(N)=O)nc1", "note": "[Compound 174, N-(6-carbamoyl-3-pyridyl)-3-[2-(trideuteriomethoxy)-4-(trifluoromethoxy)phenoxy]-5-(trifluoromethyl)pyridine-2-carboxamide]", "IC50": "> 3000"}
{"compound": "NC(=O)c1ccc(NC(=O)c2c(Oc3ccc(F)cc3Cl)ccc(C(F)(F)F)c2F)cn1", "note": "[Compound 176, 5-[[6-(2-chloro-4-fluoro-phenoxy)-2-fluoro-3-(trifluoromethyl)benzoyl]amino]pyridine-2-carboxamide]", "IC50": 490}
{"compound": "CCc1cc(C(F)(F)F)cc(Oc2ccc(OC(F)(F)F)cc2OC)c1C(=O)Nc1ccnc(C(N)=O)c1", "note": "[Compound 178, 4-[[2-ethyl-6-[2-methoxy-4-(trifluoromethoxy)phenoxy]-4-(trifluoromethyl)benzoyl]amino]pyridine-2-carboxamide]", "IC50": 27}
